Measured values from US9428487B2, “Heteroaromatic amides and thioamides as pesticides” (Bayer Intellectual Property GmbH, priority 2008, dated 2016).
Read-outs that look alike come from different tables or passages of the source.

Assays:
[1] = tested on: green peach aphid (Myzus persicae); test: Myzus test; assay type: in vivo; settings: read-out: efficacy (aphids killed)
Procedure: • Solvent: 78.0 parts by weight of acetone • 1.5 parts by weight of dimethylformamide • Emulsifier: 0.5 part by weight of alkylaryl polyglycol ether
To produce an appropriate active ingredient formulation, 1 part by weight of active ingredient is mixed with the amounts of solvent and emulsifier specified and the concentrate is diluted to the desired concentration with emulsifier-containing water.
Chinese cabbage leaf slices (Brassica pekinensis) infested by all stages of the green peach aphid (Myzus persicae) are sprayed with an active ingredient formulation of the desired concentration.
After the desired time, the efficacy in % is determined 100% means that all aphids have been killed; 0% means that no aphids have been killed.

[2] = Determination of log P values by HPLC on reversed-phase column (formic acid method); assay type: physicochemical; settings: reversed-phase C 18, acidic range (pH 3.4), formic acid eluents, 55° C., read-out: logP (HCOOH)
Procedure: 1) Description of Method for Determining the Log P Values (Formic Acid Method)
The log P values reported in the table were determined according to EEC-Directive 79/831 Annex V.A8 by HPLC (High Performance Liquid Chromatography) on a reversed-phase column (C 18). […]
Eluent A: acetonitrile+1 ml of formic acid/liter. Eluent B: water+0.9 ml of formic acid/liter.
Gradient: from 10% eluent A/90% eluent B to 95% eluent A/5% eluent B in 4.25 min
The calibration was effected with unbranched alkan-2-ones (with 3 to 16 carbon atoms), whose log P values are known (determination of the log P values on the basis of the retention times by linear interpolation between two successive alkanones). The lambda-max values were determined with reference to the UV spectra from 200 nm to 400 nm in the maxima of the chromatographic signals.

[3] = application rate 500 g/ha, spray on Chinese cabbage leaf slices
[4] = reversed-phase HPLC column (C 18), pH 3.4, HPLC

Compound `COCN(Cc1ncccn1)C(=O)c1sc(-c2cccnc2)nc1C` [Compound 99] has a pest or weed control at 500 g/ha [1, 3] of no less than 70% and a chromatographic logP [2, 4] of 1.28.
With `Cc1nc(-c2cccnc2)sc1C(=O)NCC(Cl)(Cl)Cl` [Compound 100] the pest or weed control at 500 g/ha [1, 3] was no less than 70% and the chromatographic logP [2, 4] was 2.17.
`COC(CNC(=O)c1sc(-c2cccnc2)nc1C)OC` [Compound 101] gave a pest or weed control at 500 g/ha [1, 3] of no less than 70% and a chromatographic logP [2, 4] of 1.33.
In the case of `CN(Cc1ncccn1)C(=O)c1cnc(-c2cccnc2)s1` [Compound 102], the pest or weed control at 500 g/ha [1, 3] is reported as no less than 70% and the chromatographic logP [2, 4] is reported as 1.3.
`Cc1nc(-c2cccnc2)sc1C(=O)NCC1CCCO1` (stereo not drawn) [Compound 103] showed a pest or weed control at 500 g/ha [1, 3] of no less than 70% and a chromatographic logP [2, 4] of 1.4.
`Cc1nc(-c2cccnc2)sc1C(=O)NCC1CCCCO1` (stereo not drawn) [Compound 104] showed a pest or weed control at 500 g/ha [1, 3] of no less than 70% and a chromatographic logP [2, 4] of 1.64.
`Cc1cc(CNC(=O)c2sc(-c3cccnc3)nc2C)n(C)n1` [Compound 105] gave a pest or weed control at 500 g/ha [1, 3] of no less than 70% and a chromatographic logP [2, 4] of 1.23.
For `O=C(NCc1ccccn1)c1cnc(-c2cccnc2)s1` [Compound 106], the pest or weed control at 500 g/ha [1, 3] was no less than 70% and the chromatographic logP [2, 4] was 0.61.
Compound `Cc1nccc(CNC(=O)c2sc(-c3cccnc3)nc2C)n1` [Compound 107] has a pest or weed control at 500 g/ha [1, 3] of no less than 70% and a chromatographic logP [2, 4] of 1.03.
For `CCOC(CNC(=O)c1sc(-c2cccnc2)nc1C)OCC` [Compound 108], the pest or weed control at 500 g/ha [1, 3] was no less than 70% and the chromatographic logP [2, 4] was 1.78.
`COCN(C(=O)c1sc(-c2cccnc2)nc1C)C(C)C(=O)OC` (stereo not drawn) [Compound 109] showed a pest or weed control at 500 g/ha [1, 3] of no less than 70% and a chromatographic logP [2, 4] of 1.61.
In the case of `Cc1nc(-c2cccnc2)sc1C(=O)NC1CCS(=O)(=O)C1` (stereo not drawn) [Compound 110], the pest or weed control at 500 g/ha [1, 3] is reported as no less than 70% and the chromatographic logP [2, 4] is reported as 1.22.
In the case of `Cc1nc(-c2cccnc2)sc1C(=O)N(C)C(C)c1ccccn1` (stereo not drawn) [Compound 111], the pest or weed control at 500 g/ha [1, 3] is reported as no less than 70% and the chromatographic logP [2, 4] is reported as 1.45.
With `O=C(NCc1ncccn1)c1cnc(-c2cccnc2)s1` [Compound 112] the pest or weed control at 500 g/ha [1, 3] was no less than 70% and the chromatographic logP [2, 4] was 0.81.
For `COCN(CCF)C(=O)c1sc(-c2cccnc2)nc1C` [Compound 113], the pest or weed control at 500 g/ha [1, 3] was no less than 70% and the chromatographic logP [2, 4] was 1.46.
In the case of `Cc1nc(-c2cccnc2)sc1C(=O)NC(C)(C)CS(C)(=O)=O` [Compound 114], the pest or weed control at 500 g/ha [1, 3] is reported as no less than 70% and the chromatographic logP [2, 4] is reported as 1.28.
Compound `Cc1nc(-c2cccnc2)sc1C(=O)NCc1ccc(Cl)nc1` [Compound 115] has a pest or weed control at 500 g/ha [1, 3] of no less than 70% and a chromatographic logP [2, 4] of 1.71.
Compound `COC(=O)N(CC(F)(F)F)C(=O)c1sc(-c2cccnc2)nc1C` [Compound 116] has a pest or weed control at 500 g/ha ([1]; in Brassica rapa) of no less than 70% and a chromatographic logP ([2]; HPLC) of 2.46.
`C#CCOC(=O)N(CC(F)(F)F)C(=O)c1sc(-c2cccnc2)nc1C` [Compound 117] showed a pest or weed control at 500 g/ha ([1]; in Brassica rapa) of no less than 70% and a chromatographic logP ([2]; HPLC) of 2.63.
In the case of `O=C(N[C@H]1C[C@@H]1F)c1cnc(-c2cccnc2)s1` [Compound 118], the pest or weed control at 500 g/ha [1, 3] is reported as no less than 70% and the chromatographic logP [2, 4] is reported as 1.14.
For `COCN(Cc1cc(C)on1)C(=O)c1sc(-c2cccnc2)nc1C` [Compound 119], the pest or weed control at 500 g/ha [1, 3] was no less than 70% and the chromatographic logP [2, 4] was 1.71.
Compound `CCOC(=O)NC(C)(C)CNC(=O)c1sc(-c2cccnc2)nc1C` [Compound 120] has a pest or weed control at 500 g/ha ([1]; in Brassica rapa) of no less than 70% and a chromatographic logP ([2]; HPLC) of 1.75.
With `Cc1nc(-c2cccnc2)sc1C(=O)NCC(F)(F)Br` [Compound 121] the pest or weed control at 500 g/ha [1, 3] was no less than 70% and the chromatographic logP [2, 4] was 1.98.
With `C=CC[n+]1cccc(-c2nc(C)c(C(=O)NCC(F)(F)F)s2)c1` [Compound 122] the pest or weed control at 500 g/ha [1, 3] was no less than 70% and the chromatographic logP [2, 4] was 1.13.
`Cc1nc(-c2cccnc2)sc1C(=O)NC1CCC(C(F)(F)F)CC1` (stereo not drawn) [Compound 123] showed a pest or weed control at 500 g/ha [1, 3] of no less than 70% and a chromatographic logP [2, 4] of 2.42.
`Cc1nc(-c2cccnc2)sc1C(=O)N(CCCF)CC(F)(F)F` [Compound 124] showed a pest or weed control at 500 g/ha [1, 3] of no less than 70% and a chromatographic logP [2, 4] of 2.11.
With `Cc1nc(-c2cccnc2)sc1C(=O)NCC(C)Cl` (stereo not drawn) [Compound 125] the pest or weed control at 500 g/ha [1, 3] was no less than 70% and the chromatographic logP [2, 4] was 1.69.
`Cc1nc(-c2cccnc2)sc1C(=O)NCc1ccncn1` [Compound 126] gave a pest or weed control at 500 g/ha [1, 3] of no less than 70% and a chromatographic logP [2, 4] of 0.9.
`CN(Cc1cccnc1)C(=O)c1cnc(-c2cccnc2)s1` [Compound 127] showed a pest or weed control at 500 g/ha [1, 3] of no less than 70% and a chromatographic logP [2, 4] of 0.98.
Compound `Cc1nc(-c2cccnc2)sc1C(=O)NNc1ncccn1` [Compound 128] has a pest or weed control at 500 g/ha [1, 3] of no less than 70% and a chromatographic logP [2, 4] of 0.75.
